Assays:
Mus musculus [1] = assay: Tested for effective dose required to produce diarrhea in morphine dependent mice after peroral administration; format: functional
Mus musculus [2] = assay: Tested for reduction in the analgesic response to morphine after subcutaneous administration of 1.25 mg/kg in abdominal stretching assay; format: functional, Abdomen
Mus musculus [3] = assay: Tested for effective dose required to produce diarrhea in morphine dependent mice after subcutaneous administration; format: functional
[4] = molecular target: Kappa-type opioid receptor (Cavia porcellus) (UniProt P41144); assay: Tested for binding affinity towards kappa receptor in presence of [3H]EKC radioligand at 100 nM
Chain of Kappa-type opioid receptor (Cavia porcellus) (P41144 whole entry): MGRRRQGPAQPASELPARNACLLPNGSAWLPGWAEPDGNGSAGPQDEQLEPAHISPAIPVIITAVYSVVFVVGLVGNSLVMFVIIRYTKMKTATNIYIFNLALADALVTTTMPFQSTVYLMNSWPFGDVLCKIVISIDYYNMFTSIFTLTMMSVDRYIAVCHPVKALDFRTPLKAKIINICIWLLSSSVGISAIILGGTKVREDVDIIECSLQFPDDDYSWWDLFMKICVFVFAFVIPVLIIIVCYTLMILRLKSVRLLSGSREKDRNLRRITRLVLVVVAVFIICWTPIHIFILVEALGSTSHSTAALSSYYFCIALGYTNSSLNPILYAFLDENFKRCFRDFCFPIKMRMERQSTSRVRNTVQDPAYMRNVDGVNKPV

[5] = molecular target: Kappa-type opioid receptor (Cavia porcellus) (UniProt P41144); assay: Tested for binding affinity towards kappa receptor in presence of [3H]EKC radioligand at 10 nM
[6] = molecular target: Mu-type opioid receptor (Rattus norvegicus) (UniProt P33535); assay: Tested for binding affinity towards mu receptor in presence of [3H]NAL radioligand at 10 nM
Chain of Mu-type opioid receptor (Rattus norvegicus) (P33535 whole entry): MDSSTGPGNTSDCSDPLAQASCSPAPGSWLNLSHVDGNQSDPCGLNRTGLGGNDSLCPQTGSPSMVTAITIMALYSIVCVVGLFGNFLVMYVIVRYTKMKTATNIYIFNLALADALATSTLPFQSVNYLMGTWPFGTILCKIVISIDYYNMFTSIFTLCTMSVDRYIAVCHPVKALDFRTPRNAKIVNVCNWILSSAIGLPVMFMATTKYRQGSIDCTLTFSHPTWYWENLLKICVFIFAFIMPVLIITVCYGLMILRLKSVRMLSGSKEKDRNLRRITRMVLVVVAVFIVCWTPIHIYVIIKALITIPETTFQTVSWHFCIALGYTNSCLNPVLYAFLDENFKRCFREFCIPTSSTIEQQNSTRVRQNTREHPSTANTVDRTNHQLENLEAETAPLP

[7] = molecular target: Mu-type opioid receptor (Rattus norvegicus) (UniProt P33535); assay: Tested for binding affinity towards mu receptor in presence of [3H]NAL radioligand at 100 nM
[8] = molecular target: Delta-type opioid receptor (Rattus norvegicus, UniProt P33533); assay: Tested for binding affinity towards delta receptor in rat brain homogenates using [3H]D-Ala2-[…]-enkephalin as radioligand; format: tissue-based
Chain of Delta-type opioid receptor (Rattus norvegicus, UniProt P33533) (P33533 whole entry): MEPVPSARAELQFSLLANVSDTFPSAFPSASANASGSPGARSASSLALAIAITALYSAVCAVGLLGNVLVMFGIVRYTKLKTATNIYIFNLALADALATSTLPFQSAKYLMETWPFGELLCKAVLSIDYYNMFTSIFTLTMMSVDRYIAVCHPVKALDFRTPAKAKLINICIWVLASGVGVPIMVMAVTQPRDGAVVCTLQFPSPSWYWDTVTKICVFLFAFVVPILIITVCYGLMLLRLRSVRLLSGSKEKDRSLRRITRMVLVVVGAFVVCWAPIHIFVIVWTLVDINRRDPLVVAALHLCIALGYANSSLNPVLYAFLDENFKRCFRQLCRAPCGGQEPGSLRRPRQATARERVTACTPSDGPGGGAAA

[9] = molecular target: T1, Kappa-type opioid receptor (Cavia porcellus, UniProt P41144); assay: Tested for binding affinity towards kappa receptor in presence of [3H]EKC radioligand
T1 sequence (P41144 whole entry): as the sequence (P41144 whole entry) above

Mu-type opioid receptor [10] = molecular target: Mu-type opioid receptor (Rattus norvegicus, UniProt P33535); assay: Tested for binding affinity towards mu receptor in presence of [3H]NAL radioligand
Chain of Mu-type opioid receptor (Rattus norvegicus, UniProt P33535) (P33535 whole entry): as the sequence (P33535 whole entry) above

[11] = molecular target: Delta-type opioid receptor (Mus musculus, UniProt P32300); assay: Tested for its antagonist activity against (DPDE)delta receptor in mouse vas deferens; format: functional, tissue-based; conditions: read-out: pA2 (converted)
Chain of Delta-type opioid receptor (Mus musculus, UniProt P32300) (P32300 whole entry): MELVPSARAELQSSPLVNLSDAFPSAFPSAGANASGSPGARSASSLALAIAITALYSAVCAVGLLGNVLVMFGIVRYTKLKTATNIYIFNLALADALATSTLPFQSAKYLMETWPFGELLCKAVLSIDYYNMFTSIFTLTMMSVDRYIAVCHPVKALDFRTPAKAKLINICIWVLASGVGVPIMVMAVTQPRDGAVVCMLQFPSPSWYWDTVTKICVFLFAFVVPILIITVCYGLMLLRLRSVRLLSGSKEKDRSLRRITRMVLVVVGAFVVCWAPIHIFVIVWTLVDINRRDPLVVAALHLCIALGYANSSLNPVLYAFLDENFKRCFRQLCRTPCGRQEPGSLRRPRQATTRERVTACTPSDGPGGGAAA

Mu-type opioid receptor [12] = molecular target: Mu-type opioid receptor (Cavia porcellus, UniProt P97266); assay: Tested for its antagonist activity against mu receptor using DAMGO […] in isolated guinea pig ileum; format: functional, tissue-based; conditions: read-out: pA2 (converted)
Chain of Mu-type opioid receptor (Cavia porcellus, UniProt P97266) (P97266 whole entry): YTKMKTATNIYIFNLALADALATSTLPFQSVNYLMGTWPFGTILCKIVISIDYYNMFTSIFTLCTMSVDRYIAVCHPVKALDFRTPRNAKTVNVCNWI

[13] = molecular target: T1, Kappa-type opioid receptor; assay: Tested for its antagonist activity against kappa receptor using U-69,593 […] in isolated guinea pig ileum; format: functional, tissue-based; conditions: read-out: pA2 (converted)
[14] = Mus musculus, po, read-out: ED50
[15] = Mus musculus, sc, read-out: ED50

| SMILES | ED50 (Mus musculus [1]; [14]) | AD50 (Mus musculus [2]) | ED50 (Mus musculus [3]; [15]) | Specific Displacement [4] | Specific Displacement [5] | Ki (Mu-type opioid receptor [10]) | further results |
| --- | --- | --- | --- | --- | --- | --- | --- |
| C[C@H]1CN(CC(Cc2ccccc2)C(=O)NCC(=O)O)CC[C@@]1(C)c1cccc(O)c1 (stereo not given in full) | 2 mg/kg | >40 mg/kg | 0.028 mg/kg | 53% | 23% |  |  |
| CC(C)COC(=O)CNC(=O)[C@H](Cc1ccccc1)CN1CC[C@@](C)(c2cccc(O)c2)[C@@H](C)C1 | > 10 mg/kg | 29.6 mg/kg | 0.5 mg/kg | 0% | 0% |  | Specific Displacement [6]: 11%; Specific Displacement [7]: 70% |
| CC1CN(C[C@H](Cc2ccccc2)C(=O)NCC(=O)O)CCC1(C)c1cccc(O)c1 (stereo not given in full) | 0.84 mg/kg | 9 mg/kg | 0.04 mg/kg |  |  | 0.77 nM | Ki [8]: 4.4 nM; Ki [9]: 40 nM; Kb [11]: 2 nM; Kb (Mu-type opioid receptor [12]): 0.2 nM; Kb [13]: 15.8 nM |
| C=CCN1CC[C@]23c4c5ccc(O)c4O[C@H]2C(=O)CC[C@@]3(O)[C@H]1C5 [NALOXONE] |  | 0.08 mg/kg | 0.05 mg/kg |  |  |  |  |
| CC(C)COC(=O)CNC(=O)[C@H](Cc1ccccc1)CN1CC[C@](C)(c2cccc(O)c2)[C@H](C)C1 | > 10 mg/kg | >40 mg/kg | 0.37 mg/kg | 34% | 0% |  | Specific Displacement [6]: 57%; Specific Displacement [7]: 92% |
| CC(C)COC(=O)CNC(=O)[C@@H](Cc1ccccc1)CN1CC[C@@](C)(c2cccc(O)c2)[C@@H](C)C1 |  |  |  |  |  | 5.5 nM | Ki [9]: 23 nM; ED50 (Mus musculus [1]): 1.3 mg/kg; AD50 (Mus musculus [2]; 1.25 mg/kg): 11.6 mg/kg; ED50 (Mus musculus [3]): 0.044 mg/kg |
| C[C@H]1CN(CC(Cc2ccccc2)C(=O)O)CC[C@@]1(C)c1cccc(O)c1 (stereo not given in full) |  |  | 0.028 mg/kg | 15% | 0% |  |  |
| CC(C)COC(=O)CNC(=O)C(Cc1ccccc1)CN1CCC(C)(c2cccc(O)c2)C(C)C1 (racemic) | 1.1 mg/kg | >40 mg/kg | 0.15 mg/kg | 16% | 7% | 4 nM |  |
| CC(C)COC(=O)CNC(=O)[C@@H](Cc1ccccc1)CN1CCC(C)(c2cccc(O)c2)C(C)C1 (single isomer, unassigned) | 1.7 mg/kg |  |  | 55% | 4% | 19.2 nM | AD50 (Mus musculus [2]; 1.25 mg/kg): 16.8 mg/kg; ED50 (Mus musculus [3]): 0.02 mg/kg |
